Reference: patent publication US20120245184A1 (Aderans Research Institute, Inc., priority 2006, published 2012)
Counter-ions that a name gives are not always drawn.

How the values were obtained:
[1] = system: sonic hedgehog pathway; assay: Human hedgehog reporter assay HEPM-GliLuc (HGL); format: cell-based; details: HepM human embryonic palatal mesenchymal cells, gli-luciferase reporter; read-out: HEPM Avg. EC50
Description: (§1) Mouse (TM3: mouse Leydig cells; S12: mouse embryonic mesenchymal cells) and human (Daoy: human medulloblastoma cell; HepM: human embryonic palatal mesenchymal cell) cell lines are used to screen small molecules for their ability to modulate the activity of the sonic hedgehog pathway (Table 1, Table 2, and Table 3). Stable hedgehog pathway reporter cell lines are established by specific antibiotic selection following transfection of a reporter plasmid containing a luciferase gene located directly downstream from the gli promoter. Consequently, any observable changes in cellular luciferase activity may be attributed to changes in sonic hedgehog pathway activity in mouse and human cells, respectively, since gli is the major by-product of this pathway. To calculate activity, we generate an eleven point dose curve for each compound using 1:3 dilutions in 96 well assay plates. Each plate tested also contains low and high control to establish maximal pathway activation so to establish/compare a percentage activation of each tested compound (AMAX) on respective plates.
(§2) Stable hedgehog pathway reporter cell lines are established following specific antibiotic selection following transfection of a reporter plasmid
(§3) In short, typically cells are plated in MicroTiter-plates at 10,000-20,000 cells per well, in growth media (containing 10%-20% FBS). After 48-72 hrs (HGL and DGL respectively) the media in the assay plates is switched to low-serum containing media (0.5% FBS). At that time compounds are added (at 1-5 μM) to the assay plates, in the presence or absence of hedgehog protein (octyl-modified version; 1-5 ng/ml). After another 24 hrs of incubation, the media from the assay plates is discarded and replaced with luciferase assay-mix. Subsequently, plates are incubated at RT for ˜15-30 mins and then read in a luminometer. [note: addition of the Hedgehog protein, although not critical, will sensitize the assay allowing the identification of weak actives].

[2] = system: sonic hedgehog pathway; assay: Hedgehog reporter assay (gli-luciferase) in TM3 cells; format: cell-based, mouse; details: TM3 mouse Leydig cells, gli-luciferase reporter; read-out: TM3 Avg. EC50
Description: as §1, §2, §3

[3] = system: sonic hedgehog pathway; assay: Human hedgehog reporter assay Daoy-GliLuc (DGL); format: cell-based; details: Daoy human medulloblastoma cells, gli-luciferase reporter; read-out: Daoy Avg. EC50
Description: as §1, §2, §3

Row | SMILES | EC50 [2] [nM] | EC50 [3] [nM] | EC50 [1] [nM]
1 | CCOc1ccc(-c2cncnc2)cc1CN(C(=O)c1sc2ccccc2c1Cl)C1CCC(NC)CC1 (stereo not shown) [Compound 326, 3-Chloro-benzo[b]thiophene-2-carboxylic acid (2-ethoxy-5-pyrimidin-5-yl-benzyl)-(4-methylamino-cyclohexyl)-amide dihydrochloride] | 50 to 250 | < 50 | 50 to 250
2 | CNC1CCC(N(Cc2cc(-c3ccc(C(=O)C(F)(F)F)cc3)ccc2OC)C(=O)c2sc3c(F)ccc(F)c3c2Cl)CC1 (stereo not shown) [Compound 349, 3-Chloro-4,7-difluoro-benzo[b]thiophene-2-carboxylic acid[4-methoxy-4′-(2,2,2-trifluoro-acetyl)-biphenyl-3-ylmethyl]-(4-methylamino-cyclohexyl)-amide trifluoroacetate] | < 50 | < 50 | < 50
3 | CNC1CCC(N(Cc2cc(-c3cncnc3)ccc2OC)C(=O)c2sc3ccccc3c2Cl)CC1 (stereo not shown) [Compound 324 (R20), 3-Chloro-benzo[b]thiophene-2-carboxylic acid (2-methoxy-5-pyrimidin-5-yl-benzyl)-(4-methylamino-cyclohexyl)-amide dihydrochloride] | 50 to 250 | < 50 | 50 to 250
4 | CNC(=O)c1cc(-c2ccc(OC)c(CN(C(=O)c3sc4c(F)ccc(F)c4c3Cl)C3CCC(NC)CC3)c2)ccn1 (stereo not shown) [356 (R21), 4-(3-{[(3-Chloro-4,7-difluoro-benzo[b]thiophene-2-carbonyl)-(4-methylamino-cyclohexyl)-amino]-methyl}-4-methoxy-phenyl)-pyridine-2-carboxylic acid methylamide dihydrochloride] | < 50 | < 50 | < 50
5 | CNC1CCC(N(Cc2cc(-c3ccc(C#N)cc3)ccc2OC)C(=O)c2sc3c(F)ccc(F)c3c2Cl)CC1 (stereo not shown) [Compound 351, 3-Chloro-4,7-difluoro-benzo[b]thiophene-2-carboxylic acid (4′-cyano-4-methoxy-biphenyl-3-ylmethyl)-(4-methylamino-cyclohexyl)-amide hydrochloride] | < 50 | – | < 50
6 | CCOc1ccc(-c2cccc(C#N)c2)cc1CN(C(=O)c1sc2ccccc2c1Cl)C1CCC(NC)CC1 (stereo not shown) [Compound 328, 3-Chloro-benzo[b]thiophene-2-carboxylic acid (3′-cyano-4-ethoxy-biphenyl-3-ylmethyl)-(4-methylamino-cyclohexyl)-amide hydrochloride] | < 50 | < 50 | 50 to 250
7 | CNC1CCC(N(Cc2cc(-c3cnccn3)ccc2OC)C(=O)c2sc3ccccc3c2Cl)CC1 (stereo not shown) [Compound 330 (R22), 3-Chloro-benzo[b]thiophene-2-carboxylic acid (2-methoxy-5-pyrazin-2-yl-benzyl)-(4-methylamino-cyclohexyl)-amide bis(trifluoroacetate)] | 50 to 250 | < 50 | 50 to 250
8 | CCOc1ccc(-c2ccc(C(C)=O)cc2)cc1CN(C(=O)c1sc2ccccc2c1Cl)C1CCC(NC)CC1 (stereo not shown) [Compound 311, 3-Chloro-benzo[b]thiophene-2-carboxylic acid (4′-acetyl-4-ethoxy-biphenyl-3-ylmethyl)-(4-methylamino-cyclohexyl)-amide hydrochloride] | < 50 | < 50 | 50 to 250
9 | CNC1CCC(N(Cc2cc(-c3ccc(CCl)cc3)ccc2OC)C(=O)c2sc3ccccc3c2Cl)CC1 (stereo not shown) [Compound 340, 3-Chloro-benzo[b]thiophene-2-carboxylic acid (4′-chloromethyl-4-methoxy-biphenyl-3-ylmethyl)-(4-methylamino-cyclohexyl)-amide hydrochloride] | < 50 | < 50 | < 50
10 | CCOc1ccc(-c2cnc(N)nc2)cc1CN(C(=O)c1sc2ccccc2c1Cl)[C@H]1CC[C@H](NC)CC1 [Compound 325, 3-Chloro-benzo[b]thiophene-2-carboxylic acid[5-(2-amino-pyrimidin-5-yl)-2-ethoxy-benzyl]-(4-methylamino-cyclohexyl)-amide dihydrochloride] | 250 to 1000 | < 50 | 50 to 250
11 | CNC1CCC(N(Cc2cc(-c3ccc(N(C)C=O)cc3)ccc2OC)C(=O)c2sc3cccc(F)c3c2Cl)CC1 (stereo not shown) [Compound 347, 3-Chloro-4-fluoro-benzo[b]thiophene-2-carboxylic acid[4′-(formyl-methyl-amino)-4-methoxy-biphenyl-3-ylmethyl]-(4-methylamino-cyclohexyl)-amide trifluoroacetate] | < 50 | < 50 | < 50

Second part, led by results:

Row | EC50 [2] [nM] | EC50 [3] [nM] | SMILES | EC50 [1] [nM]
12 | < 50 | < 50 | CNC1CCC(N(Cc2cc(-c3cncnc3)ccc2OC)C(=O)c2sc3c(F)ccc(F)c3c2Cl)CC1 (stereo not shown) [Compound 343 (R15), 3-Chloro-4,7-difluoro-benzo[b]thiophene-2-carboxylic acid(2-methoxy-5-pyrimidin-5-yl-benzyl)-(4-methylamino-cyclohexyl)-amide dihydrochloride] | < 50
13 | < 50 | < 50 | CN[C@H]1CC[C@@H](N(Cc2cc(-c3ccnc(N(C)C)c3)ccc2OC)C(=O)c2sc3c(C)ccc(C)c3c2Cl)CC1 [Compound 358, 3-Chloro-4,7-difluoro-benzo[b]thiophene-2-carboxylic acid[5-(2-dimethylamino-pyridin-4-yl)-2-methoxy-benzyl]-(4-methylamino-cyclohexyl)-amide dihydrochloride] | < 50
14 | < 50 | < 50 | CNC1CCC(N(Cc2cc(-c3cc(C)cc(C)c3)ccc2OC)C(=O)C2=C(Cl)c3c(C)ccc(F)c3C2)CC1 (stereo not shown) [Compound 350, 3-Chloro-4,7-difluoro-benzo[b]thiophene-2-carboxylic acid[5-(2,6-dimethyl-pyridin-4-yl)-2-methoxy-benzyl]-(4-methylamino-cyclohexyl)-amide dihydrochloride] | 50 to 250
15 | < 50 | < 50 | CN[C@H]1CC[C@@H](N(Cc2cc(-c3ccnc(C)c3)ccc2OC)C(=O)C2=C(Cl)c3c(F)ccc(C)c3C2)CC1 [Compound 345, 3-Chloro-4,7-difluoro-benzo[b]thiophene-2-carboxylic acid[2-methoxy-5-(2-methyl-pyridin-4-yl)-benzyl]-(4-methylamino-cyclohexyl)-amide dihydrochloride] | < 50
16 | < 50 | < 50 | CNC1CCC(N(Cc2cc(-c3ccc(OC)cc3)ccc2OC)C(=O)c2sc3ccccc3c2Cl)CC1 (stereo not shown) [Compound 305, 3-Chloro-benzo[b]thiophene-2-carboxylic acid (4,4′-dimethoxy-biphenyl-3-ylmethyl)-(4-methylamino-cyclohexyl)-amide hydrochloride] | 250 to 1000
17 | < 50 | < 50 | CNC1CCC(N(Cc2cc(-c3ccc(N)nc3)ccc2OC)C(=O)c2sc3c(F)ccc(F)c3c2Cl)CC1 (stereo not shown) [Compound 352 (R18), 3-Chloro-4,7-difluoro-benzo[b]thiophene-2-carboxylic acid[5-(6-amino-pyridin-3-yl)-2-methoxy-benzyl]-(4-methylamino-cyclohexyl)-amide dihydrochloride] | < 50
18 | < 50 | < 50 | CNC1CCC(N(Cc2cc(-c3cnccn3)ccc2OC)C(=O)c2sc3c(F)ccc(F)c3c2Cl)CC1 (stereo not shown) [Compound 344 (R14), 3-Chloro-4,7-difluoro-benzo[b]thiophene-2-carboxylic acid(2-methoxy-5-pyrazin-2-yl-benzyl)-(4-methylamino-cyclohexyl)-amide dihydrochloride] | < 50
19 | 50 to 250 | – | CCOc1ccc(-c2ccc(C)nc2)cc1CN(C(=O)c1sc2ccccc2c1Cl)C1CCC(NC)CC1 (stereo not shown) [Compound R4, 3-Chloro-benzo[b]thiophene-2-carboxylic acid[2-ethoxy-5-(6-methyl-pyridin-3-yl)-benzyl]-(4-methylamino-cyclohexyl)-amide dihydrochloride] | 50 to 250
